Source: the supplement of paper PMC11451515

Tested on: P12-Ichikawa
Experiment: cell viability relative to DMSO control; higher = less cytotoxic
Settings: 48 h
Procedure, shortened: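 Three leukemia lines were tested: NOMO1 and SEM at 500 cells/well and P12-Ichikawa at 1000 cells/well. Each was adapted for at least four passages in each medium and seeded in 5 μl in 1536-well plates, and library compounds in DMSO were pin-dosed from 47 μM to 0.79 nM in 11 threefold steps. After 48 h at 37°C, CellTiter-Glo One luminescence was read. Viability is a percentage relative to DMSO wells on each plate, with cell-free wells as background.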

[1] = HPLM + 10% dialyzed FBS, 0.000781 µM
[2] = HPLM + 10% dialyzed FBS, 0.00234 µM
[3] = HPLM + 10% dialyzed FBS, 0.00702 µM
[4] = HPLM + 10% dialyzed FBS, 0.0211 µM
[5] = HPLM + 10% dialyzed FBS, 0.0632 µM
[6] = HPLM + 10% dialyzed FBS, 0.19 µM
[7] = HPLM + 10% dialyzed FBS, 0.569 µM
[8] = HPLM + 10% dialyzed FBS, 1.71 µM
[9] = HPLM + 10% dialyzed FBS, 5.12 µM
[10] = HPLM + 10% dialyzed FBS, 15.4 µM
[11] = HPLM + 10% dialyzed FBS, 46.1 µM
[12] = RPMI 5 mM glucose + 10% FBS, 0.000781 µM
[13] = RPMI 5 mM glucose + 10% FBS, 0.00234 µM
[14] = RPMI 5 mM glucose + 10% FBS, 0.00702 µM
[15] = RPMI 5 mM glucose + 10% FBS, 0.0211 µM
[16] = RPMI 5 mM glucose + 10% FBS, 0.0632 µM
[17] = RPMI 5 mM glucose + 10% FBS, 0.19 µM
[18] = RPMI 5 mM glucose + 10% FBS, 0.569 µM
[19] = RPMI 5 mM glucose + 10% FBS, 1.71 µM
[20] = RPMI 5 mM glucose + 10% FBS, 5.12 µM
[21] = RPMI 5 mM glucose + 10% FBS, 15.4 µM
[22] = RPMI 5 mM glucose + 10% FBS, 46.1 µM
[23] = RPMI 5 mM glucose + 10% dialyzed FBS, 0.000781 µM
[24] = RPMI 5 mM glucose + 10% dialyzed FBS, 0.00234 µM
[25] = RPMI 5 mM glucose + 10% dialyzed FBS, 0.00702 µM
[26] = RPMI 5 mM glucose + 10% dialyzed FBS, 0.0211 µM
[27] = RPMI 5 mM glucose + 10% dialyzed FBS, 0.0632 µM
[28] = RPMI 5 mM glucose + 10% dialyzed FBS, 0.19 µM
[29] = RPMI 5 mM glucose + 10% dialyzed FBS, 0.569 µM
[30] = RPMI 5 mM glucose + 10% dialyzed FBS, 1.71 µM
[31] = RPMI 5 mM glucose + 10% dialyzed FBS, 5.12 µM
[32] = RPMI 5 mM glucose + 10% dialyzed FBS, 15.4 µM
[33] = RPMI 5 mM glucose + 10% dialyzed FBS, 46.1 µM

SMILES | cell viability [1] | cell viability [2] | cell viability [3] | cell viability [4] | cell viability [5] | cell viability [6] | cell viability [7] | cell viability [8] | cell viability [9] | cell viability [10] | cell viability [11] | cell viability [12] | cell viability [13] | cell viability [14] | cell viability [15] | cell viability [16] | cell viability [17] | cell viability [18] | cell viability [19] | cell viability [20] | cell viability [21] | cell viability [22] | cell viability [23] | cell viability [24] | cell viability [25] | cell viability [26] | cell viability [27] | cell viability [28] | cell viability [29] | cell viability [30] | cell viability [31] | cell viability [32] | cell viability [33]
O=C1Nc2ccc(I)cc2/C1=C/c1cc(Br)c(O)c(Br)c1 | 103% | 100% | 103% | 105% | 109% | 105% | 108% | 102% | 102% | 98.2% | 86.4% | 99% | 110% | 106% | 103% | 101% | 104% | 102% | 104% | 101% | 96.7% | 79% | 106% | 111% | 110% | 107% | 103% | 111% | 108% | 101% | 100% | 93.4% | 84%
CC1=C(CC(=O)O)c2cc(F)ccc2/C1=C\c1ccc([S+](C)[O-])cc1 (stereo not drawn) | 121% | 110% | 116% | 123% | 124% | 117% | 116% | 109% | 108% | 106% | 101% |  |  |  |  |  |  |  |  |  |  |  | 121% | 120% | 127% | 125% | 112% | 122% | 109% | 108% | 111% | 111% | 105%
Cc1cc(Nc2cc(CN3CCOCC3)c3nc(C)c(Cc4ccc(Cl)cc4F)n3n2)[nH]n1 | 112% | 105% | 119% | 116% | 109% | 111% | 114% | 104% | 96.5% | 34.8% | 78.4% | 120% | 114% | 117% | 117% | 110% | 116% | 96.2% | 109% | 86.6% | 48.1% | 56.5% | 106% | 101% | 115% | 114% | 104% | 111% | 99.7% | 104% | 95.8% | 51.5% | 62.7%
C=CC(=O)Nc1cccc(Nc2nc(NC3CCC(N(C)C)CC3)nc3c2ncn3C(C)C)c1 (stereo not drawn) | 107% | 115% | 112% | 106% | 112% | 113% | 105% | 85.3% | 36.7% | 11.1% | 5.85% | 115% | 114% | 114% | 112% | 115% | 112% | 107% | 94.8% | 28.6% | 8.46% | 5.44% | 108% | 110% | 108% | 116% | 122% | 119% | 123% | 114% | 35.5% | 11% | 6.55%
CNCc1ccc(-c2[nH]c3cc(F)cc4c3c2CCNC4=O)cc1 | 109% | 124% | 121% | 121% | 124% | 126% | 130% | 119% | 122% | 123% | 119% |  |  |  |  |  |  |  |  |  |  |  |  |  |  |  |  |  |  |  |  |  | 
C[S+](=O)([O-])c1ccc(-c2cnc(N)c(C(=O)Nc3ccccc3)n2)cc1 | 99.6% | 104% | 107% | 107% | 117% | 119% | 118% | 118% | 114% | 88.4% | 87.2% | 103% | 119% | 111% | 112% | 123% | 122% | 116% | 121% | 114% | 76.9% | 80.5% | 104% | 117% | 120% | 120% | 121% | 115% | 124% | 114% | 117% | 72.6% | 69.7%
C=CCc1cccc(/C=N/NC(=O)CN2CCN(Cc3ccccc3)CC2)c1O | 120% | 115% | 119% | 118% | 116% | 117% | 117% | 106% | 97% | 64.2% | 7.9% | 110% | 102% | 113% |  | 110% | 113% | 108% | 108% | 94.5% | 52.9% | 17.1% | 109% | 99.7% | 109% | 114% | 109% | 101% | 112% | 102% | 87.5% | 44.8% | 13.5%
C/C(O)=C(\C#N)C(=O)Nc1cc(Br)ccc1Br | 105% | 110% | 114% | 109% | 109% | 109% | 108% | 105% | 99.6% | 97.9% | 95% | 100% | 109% | 104% | 108% | 105% | 107% | 100% | 101% | 104% | 96.4% | 86.5% | 106% | 113% | 114% | 109% | 106% | 104% | 103% | 116% | 96.3% | 94.5% | 94.5%
CC(C)c1ccc(Cn2ccc3c4c(N)nc(NC5CC5)nc4ccc32)cc1 | 110% | 116% | 119% | 84% | 116% | 100% | 83.4% | 65.6% | 32.7% | 26.7% | 2.54% | 118% | 123% | 127% | 84.8% | 126% | 133% | 133% | 114% | 52.2% | 51.5% | 2.24% | 118% | 124% | 122% | 86.4% | 139% | 126% | 132% | 85.5% | 36.5% | 32.1% | 2.44%
